Source: PubChem BioAssay (NCI)
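Interpolation was linear, between the two tested concentrations surrounding the appropriate level; five concentrations were tested over 48 hours in 96-well plates. TGI: total growth inhibition.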

Tests used:
Test in all cases: NCI-60 cell line screen, 48 h
[1] = tested on: 786-0 renal
[2] = tested on: A498 renal
[3] = tested on: A549 NSCLC
[4] = tested on: ACHN renal
[5] = tested on: BT-549 breast
[6] = tested on: CAKI-1 renal
[7] = tested on: COLO 205 colon
[8] = tested on: DU-145 prostate
[9] = tested on: EKVX NSCLC
[10] = tested on: HCC-2998 colon
[11] = tested on: HCT-116 colon
[12] = tested on: HCT-15 colon
[13] = tested on: HOP-62 NSCLC
[14] = tested on: HOP-92 NSCLC
[15] = tested on: HT29 colon
[16] = tested on: IGROV1 ovarian
[17] = tested on: K-562 leukemia
[18] = tested on: KM12 colon
[19] = tested on: LOX IMVI melanoma
[20] = tested on: M14 melanoma
[21] = tested on: MALME-3M melanoma
[22] = tested on: MCF7 breast
[23] = tested on: MDA-MB-231 breast
[24] = tested on: MDA-MB-435
[25] = tested on: MDA-N
[26] = tested on: MOLT-4 leukemia
[27] = tested on: NCI-H226 lung
[28] = tested on: NCI-H23 lung
[29] = tested on: NCI-H460 lung
[30] = tested on: NCI-H522 lung
[31] = tested on: NCI/ADR-RES ovarian
[32] = tested on: OVCAR-3 ovarian
[33] = tested on: OVCAR-4 ovarian
[34] = tested on: OVCAR-5 ovarian
[35] = tested on: OVCAR-8 ovarian
[36] = tested on: PC-3 prostate
[37] = tested on: RPMI-8226 leukemia
[38] = tested on: RXF 393 renal
[39] = tested on: SF-268 CNS
[40] = tested on: SF-295 CNS
[41] = tested on: SF-539 CNS
[42] = tested on: SK-MEL-2 melanoma
[43] = tested on: SK-MEL-28 melanoma
[44] = tested on: SK-MEL-5 melanoma
[45] = tested on: SK-OV-3 ovarian
[46] = tested on: SN12C renal
[47] = tested on: SNB-19 CNS
[48] = tested on: SNB-75 CNS
[49] = tested on: SR leukemia
[50] = tested on: SW-620 colon
[51] = tested on: T-47D breast
[52] = tested on: TK-10 renal
[53] = tested on: U251 CNS
[54] = tested on: UACC-257 melanoma
[55] = tested on: UACC-62 melanoma
[56] = tested on: UO-31 renal
[57] = tested on: CCRF-CEM leukemia
[58] = tested on: HL-60(TB) leukemia
[59] = tested on: HS 578T breast

For CC1(C)CCC[C@]2(C)[C@@H]1CC[C@@]13O[C@@H]1C1=C(CO)C(=O)O[C@]14O[C@@H]4[C@@H]23, the TGI [1] was 29.8 µM, the TGI [2] was 32.9 µM and the TGI [3] was 23.5 µM. It also gave a TGI [4] of 30.2 µM, a TGI [5] of 31.8 µM and a TGI [6] of 36.4 µM. For the same compound, the TGI [7] was 40.3 µM, the TGI [8] was 33.8 µM and the TGI [9] was 24.9 µM. The TGI [10] was 40.5 µM, the TGI [11] was 26.6 µM and the TGI [12] was 37.4 µM. For the same compound, the TGI [13] was 34.6 µM, the TGI [14] was 29.3 µM and the TGI [15] was 26.2 µM. For the same compound, the TGI [16] was 27.3 µM, the TGI [17] was over 55.2 µM and the TGI [18] was 63.8 µM. It also gave a TGI [19] of 24 µM, a TGI [20] of 23.6 µM and a TGI [21] of 32.4 µM. For the same compound, the TGI [22] was over 63.9 µM, the TGI [23] was 35.9 µM and the TGI [24] was over 53.1 µM. The TGI [25] was 20.1 µM, the TGI [26] was over 100 µM and the TGI [27] was 42.1 µM. It also gave a TGI [28] of 28.4 µM, a TGI [29] of 41 µM and a TGI [30] of 22 µM. It also gave a TGI [31] of 39.1 µM, a TGI [32] of 27.1 µM and a TGI [33] of 30 µM. For the same compound, the TGI [34] was 31.8 µM, the TGI [35] was 26.7 µM and the TGI [36] was 25.5 µM. For the same compound, the TGI [37] was over 100 µM, the TGI [38] was 25.2 µM and the TGI [39] was 29.6 µM. For the same compound, the TGI [40] was 32.3 µM, the TGI [41] was 37.6 µM and the TGI [42] was 31.6 µM. The TGI [43] was 31.4 µM, the TGI [44] was 31.7 µM and the TGI [45] was 31.7 µM. It also gave a TGI [46] of 20.5 µM, a TGI [47] of 27.9 µM and a TGI [48] of 30.6 µM. The TGI [49] was over 100 µM, the TGI [50] was 29.5 µM and the TGI [51] was over 100 µM. It also gave a TGI [52] of 38 µM, a TGI [53] of 29.2 µM and a TGI [54] of 35.8 µM. It also gave a TGI [55] of 37.7 µM and a TGI [56] of 18.7 µM.

N#CCCNCCN(CCN(C(=O)Nc1ccccc1)c1ccccc1)C(=O)Nc1ccccc1 gave a TGI [1] of over 100 µM, a TGI [2] of over 100 µM and a TGI [3] of over 100 µM. For the same compound, the TGI [4] was over 100 µM, the TGI [5] was over 100 µM and the TGI [57] was over 100 µM. It also gave a TGI [7] of 46.3 µM, a TGI [8] of over 100 µM and a TGI [9] of over 100 µM. It also gave a TGI [10] of 36 µM, a TGI [11] of over 100 µM and a TGI [12] of over 100 µM. The TGI [58] was over 100 µM, the TGI [13] was over 100 µM and the TGI [14] was over 100 µM. The TGI [59] was over 100 µM, the TGI [15] was over 100 µM and the TGI [16] was over 100 µM. It also gave a TGI [17] of over 100 µM, a TGI [19] of over 100 µM and a TGI [20] of 46.1 µM. The TGI [21] was 54.8 µM, the TGI [22] was over 100 µM and the TGI [23] was over 100 µM. For the same compound, the TGI [25] was over 100 µM, the TGI [26] was over 100 µM and the TGI [27] was over 100 µM. The TGI [28] was over 100 µM, the TGI [29] was over 100 µM and the TGI [30] was 54.4 µM. The TGI [31] was over 100 µM, the TGI [34] was over 100 µM and the TGI [35] was over 100 µM. The TGI [36] was over 100 µM, the TGI [37] was over 100 µM and the TGI [38] was over 100 µM. The TGI [39] was over 100 µM, the TGI [40] was over 100 µM and the TGI [42] was over 100 µM. For the same compound, the TGI [43] was 67.3 µM, the TGI [44] was 45 µM and the TGI [45] was over 100 µM. The TGI [46] was over 100 µM, the TGI [47] was over 100 µM and the TGI [48] was over 100 µM. For the same compound, the TGI [49] was over 100 µM, the TGI [50] was over 100 µM and the TGI [51] was over 100 µM. It also gave a TGI [52] of over 100 µM, a TGI [53] of over 100 µM and a TGI [54] of 32.1 µM. For the same compound, the TGI [55] was over 100 µM and the TGI [56] was over 100 µM.

For O=C(NCC1Nc2ccncc2S(=O)(=O)N1)c1ccc(Br)cc1 (stereo unspecified), the TGI [1] was over 100 µM, the TGI [2] was over 100 µM and the TGI [3] was over 100 µM. The TGI [4] was over 100 µM, the TGI [5] was over 100 µM and the TGI [6] was over 100 µM. The TGI [7] was over 100 µM, the TGI [8] was over 100 µM and the TGI [9] was over 100 µM. It also gave a TGI [10] of over 100 µM, a TGI [11] of over 100 µM and a TGI [12] of over 100 µM. It also gave a TGI [58] of over 100 µM, a TGI [13] of over 100 µM and a TGI [14] of over 100 µM. The TGI [59] was 83.1 µM, the TGI [15] was over 100 µM and the TGI [16] was over 100 µM. The TGI [17] was over 100 µM, the TGI [18] was over 100 µM and the TGI [19] was over 100 µM. For the same compound, the TGI [20] was 90.8 µM, the TGI [21] was 97.5 µM and the TGI [22] was over 100 µM. It also gave a TGI [23] of over 100 µM, a TGI [24] of 37.2 µM and a TGI [25] of 58.6 µM. For the same compound, the TGI [26] was over 100 µM, the TGI [27] was over 100 µM and the TGI [28] was over 100 µM. It also gave a TGI [29] of over 100 µM, a TGI [30] of over 100 µM and a TGI [31] of over 100 µM. It also gave a TGI [32] of over 100 µM, a TGI [33] of over 100 µM and a TGI [34] of over 100 µM. It also gave a TGI [35] of over 100 µM, a TGI [36] of 51.4 µM and a TGI [37] of over 100 µM. The TGI [38] was over 100 µM, the TGI [39] was 81.2 µM and the TGI [40] was over 100 µM. For the same compound, the TGI [42] was 57.4 µM, the TGI [43] was over 100 µM and the TGI [44] was over 100 µM. For the same compound, the TGI [45] was over 100 µM, the TGI [46] was over 100 µM and the TGI [47] was over 100 µM. For the same compound, the TGI [48] was over 100 µM, the TGI [50] was over 100 µM and the TGI [51] was over 100 µM. It also gave a TGI [52] of over 100 µM, a TGI [53] of over 100 µM and a TGI [54] of over 100 µM. The TGI [55] was over 100 µM and the TGI [56] was over 100 µM.

CSc1nc2ccccc2c(=O)n1/N=C1\C(=O)N(CN2CCOCC2)c2ccc(Cl)cc21 was tested, and the TGI [1] was over 100 µM, the TGI [2] was over 100 µM and the TGI [3] was over 100 µM. It also gave a TGI [4] of over 100 µM, a TGI [5] of 93.8 µM and a TGI [6] of over 100 µM. For the same compound, the TGI [57] was over 100 µM, the TGI [7] was 36.6 µM and the TGI [8] was 63.6 µM. It also gave a TGI [9] of 64.8 µM, a TGI [11] of over 100 µM and a TGI [12] of over 100 µM. It also gave a TGI [58] of 64 µM, a TGI [13] of over 100 µM and a TGI [14] of over 100 µM. The TGI [59] was over 100 µM, the TGI [15] was over 100 µM and the TGI [16] was over 100 µM. For the same compound, the TGI [17] was over 100 µM, the TGI [18] was over 100 µM and the TGI [19] was 33.3 µM. It also gave a TGI [20] of over 100 µM, a TGI [21] of over 100 µM and a TGI [22] of over 100 µM. For the same compound, the TGI [23] was over 100 µM, the TGI [24] was over 100 µM and the TGI [25] was over 100 µM. It also gave a TGI [26] of 42.8 µM, a TGI [27] of over 100 µM and a TGI [28] of over 100 µM. For the same compound, the TGI [29] was 43.4 µM, the TGI [30] was 89.8 µM and the TGI [31] was over 100 µM. It also gave a TGI [32] of over 100 µM, a TGI [33] of over 100 µM and a TGI [34] of over 100 µM. The TGI [35] was over 100 µM, the TGI [36] was over 100 µM and the TGI [38] was 44.8 µM. For the same compound, the TGI [39] was over 100 µM, the TGI [40] was over 100 µM and the TGI [41] was 75.6 µM. The TGI [42] was 51.6 µM, the TGI [43] was over 100 µM and the TGI [44] was over 100 µM. It also gave a TGI [45] of over 100 µM, a TGI [46] of over 100 µM and a TGI [47] of over 100 µM. It also gave a TGI [48] of over 100 µM, a TGI [50] of over 100 µM and a TGI [51] of over 100 µM. The TGI [52] was 71.4 µM, the TGI [53] was over 100 µM and the TGI [54] was 51.2 µM. The TGI [55] was 61.3 µM and the TGI [56] was over 100 µM.
